From US12427144B2, “Compounds and methods for the targeted degradation of androgen receptor” (Arvinas Operations, Inc., priority 2019, dated 2025)

Target: T1, Androgen Receptor (AR) (Homo sapiens, UniProt P10275)
T1 construct: endogenous in cells; host or cells: VCaP
T1 sequence (P10275 1-920): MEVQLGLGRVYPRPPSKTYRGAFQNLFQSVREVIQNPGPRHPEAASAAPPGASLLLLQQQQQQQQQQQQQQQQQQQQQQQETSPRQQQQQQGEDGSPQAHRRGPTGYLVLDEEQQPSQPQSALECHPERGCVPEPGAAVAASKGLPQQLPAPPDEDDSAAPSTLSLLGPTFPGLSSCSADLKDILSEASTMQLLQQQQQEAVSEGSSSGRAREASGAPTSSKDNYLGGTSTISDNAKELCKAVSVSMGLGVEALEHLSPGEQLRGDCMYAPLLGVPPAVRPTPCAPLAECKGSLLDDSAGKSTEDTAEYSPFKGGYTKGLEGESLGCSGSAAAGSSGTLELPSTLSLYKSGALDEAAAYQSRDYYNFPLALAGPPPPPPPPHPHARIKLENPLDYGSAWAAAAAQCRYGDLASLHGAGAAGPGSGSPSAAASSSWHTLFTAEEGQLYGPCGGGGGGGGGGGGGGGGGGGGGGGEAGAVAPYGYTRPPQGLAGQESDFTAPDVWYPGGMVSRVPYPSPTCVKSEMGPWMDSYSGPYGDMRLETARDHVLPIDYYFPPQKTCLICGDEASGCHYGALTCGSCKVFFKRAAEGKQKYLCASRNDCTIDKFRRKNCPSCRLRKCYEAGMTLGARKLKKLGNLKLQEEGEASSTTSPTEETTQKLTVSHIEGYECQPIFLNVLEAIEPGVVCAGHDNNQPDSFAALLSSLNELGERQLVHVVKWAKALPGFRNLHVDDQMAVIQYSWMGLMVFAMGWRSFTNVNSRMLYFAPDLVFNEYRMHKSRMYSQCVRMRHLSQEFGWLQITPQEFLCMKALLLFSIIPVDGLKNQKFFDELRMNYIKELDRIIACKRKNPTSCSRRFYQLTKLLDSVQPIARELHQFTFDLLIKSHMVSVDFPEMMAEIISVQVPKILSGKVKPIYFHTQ
Assay: AR immunofluorescence staining, high content imager, VCaP cells
Format: cell-based
Settings: for DC50: AR degradation by immunofluorescence; for Dmax: maximal AR degradation
In short: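 VCaP cells treated with compound, fixed in 4% PFA (8% 2× solution added directly for low-adherence lines), permeabilised with 0.1% Triton X-100 and blocked. Stained overnight at 4° C with anti-AR antibody, then FITC anti-rabbit secondary plus phalloidin and DAPI/Hoechst. Read by high-content imaging.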

Compound | DC50 | Dmax
N#Cc1ccc(O[C@H]2CC[C@H](NC(=O)c3ccc(N4CCC(CN5CCN(c6cccc(C(=O)NC7CCC(=O)NC7=O)c6)CC5)CC4)nn3)CC2)cc1Cl (stereo partly drawn) [Compound 29, N-((1R,4R)-4-(3-chloro-4-cyanophenoxy)cyclohexyl)-6-(4-((4-(3-((2,6-dioxopiperidin-3-yl)carbamoyl)phenyl)piperazin-1-yl)methyl)piperidin-1-yl)pyridazine-3-carboxamide] | < 1 nM | < 50%
CC1(C)[C@H](NC(=O)c2ccc(N3CCC(CN4CCN(c5ccc(C(=O)NC6CCC(=O)NC6=O)c(F)c5)CC4)CC3)cc2)C(C)(C)[C@H]1Oc1ccc(C#N)c(Cl)c1 (stereo partly drawn) [Compound 19, 4-(4-((1-(4-(((1R,3R)-3-(3-chloro-4-cyanophenoxy)-2,2,4,4-tetramethylcyclobutyl)carbamoyl)phenyl)piperidin-4-yl)methyl)piperazin-1-yl)-N-(2,6-dioxopiperidin-3-yl)-2-fluorobenzamide] | < 1 nM | ≥ 70%
COc1cc(O[C@H]2C(C)(C)[C@H](NC(=O)c3ccc(N4CCC(CN5CCN(c6ccc(C(=O)N[C@@H]7CCC(=O)NC7=O)c(F)c6)CC5)CC4)cc3)C2(C)C)ccc1C#N [Compound 14, 4-(4-((1-(4-(((1R,3R)-3-(4-cyano-3-methoxyphenoxy)-2,2,4,4-tetramethylcyclobutyl)carbamoyl)phenyl)piperidin-4-yl)methyl)piperazin-1-yl)-N—((R)-2,6-dioxopiperidin-3-yl)-2-fluorobenzamide] | 1 to 10 nM | < 50%
Cc1cc(O[C@H]2C(C)(C)[C@H](NC(=O)c3ccc(N4CCC(CN5CCN(c6ccc(C(=O)N[C@H]7CCC(=O)NC7=O)cn6)CC5)CC4)cc3)C2(C)C)cc(C)c1C#N [Compound 46] | < 1 nM | ≥ 70%
COc1cc(C(=O)NC2CCC(=O)NC2=O)ccc1O[C@H]1C[C@H](N(CC2CCN(c3ccc(C(=O)N[C@H]4C(C)(C)[C@H](Oc5cc(C)c(C#N)c(C)c5)C4(C)C)cc3)CC2)C(C)C)C1 (some centres unmarked) [Compound 66, N-(2,6-dioxopiperidin-3-yl)-3-methoxy-4-[(1r,3r)-3-[(propan-2-yl)({[1-(4-{[(1r,3r)-3-(4-cyano-3,5-dimethylphenoxy)-2,2,4,4-tetramethylcyclobutyl]carbamoyl}phenyl)piperidin-4-yl]methyl})amino]cyclobutoxy]benzamide] | < 1 nM | 50 to 70%
COc1cc(O[C@H]2C(C)(C)[C@H](NC(=O)c3ccc(N4CCO[C@H](CN(C(C)C)[C@H]5C[C@@H](Oc6ccc(C(=O)N[C@H]7CCC(=O)NC7=O)c(F)c6)C5)C4)cc3)C2(C)C)ccc1C#N [Compound 43, 4-[(2R)-2-([isopropyl[(1r,3r)-3-(4-[[(3S)-2,6-dioxopiperidin-3-yl]carbamoyl]-3-fluorophenoxy)cyclobutyl]amino]methyl)morpholin-4-yl]-N-[(1r,3r)-3-(4-cyano-3-methoxyphenoxy)-2,2,4,4-tetramethylcyclobutyl]benzamide] | < 1 nM | ≥ 70%
COc1cc(O[C@H]2C(C)(C)[C@H](NC(=O)c3ccc(N4CCOC(CN(C(C)C)[C@H]5C[C@@H](Oc6ccc(F)c(C(=O)N[C@H]7CCC(=O)NC7=O)c6)C5)C4)cc3)C2(C)C)ccc1C#N (stereo partly drawn) [Compound 62, 4-(2-{[(propan-2-yl)[(1r,3r)-3-(3-{[(3S)-2,6-dioxopiperidin-3-yl]carbamoyl}-4-fluorophenoxy)cyclobutyl]amino]methyl}morpholin-4-yl)-N-[(1r,3r)-3-(4-cyano-3-methoxyphenoxy)-2,2,4,4-tetramethylcyclobutyl]benzamide] | < 1 nM | 50 to 70%
COc1cc(O[C@H]2C(C)(C)[C@H](NC(=O)c3ccc(N4CCC(CN5CCN(c6ccc(C(=O)NC7CCC(=O)NC7=O)cc6OC)CC5)CC4)cc3)C2(C)C)ccc1C#N (some centres unmarked) [Compound 60, N-(2,6-dioxopiperidin-3-yl)-3-methoxy-4-(4-{[1-(4-{[(1r,3r)-3-(4-cyano-3-methoxyphenoxy)-2,2,4,4-tetramethylcyclobutyl]carbamoyl}phenyl)piperidin-4-yl]methyl}piperazin-1-yl)benzamide] | < 1 nM | ≥ 70%

More lines, now with the values ahead:

DC50 | Dmax | Compound
< 1 nM | ≥ 70% | COc1cc(O[C@H]2C(C)(C)[C@H](NC(=O)c3ccc(N4CCC(CN5CCN(c6ccc(C(=O)N[C@H]7CCC(=O)NC7=O)nc6)CC5)CC4)cc3)C2(C)C)ccc1C#N [Compound 40, 5-[4-[[1-[4-[[3-(4-cyano-3-methoxy-phenoxy)-2,2,4,4-tetramethyl-cyclobutyl]carbamoyl]phenyl]-4-piperidyl]methyl]piperazin-1-yl]-N-[(3S)-2,6-dioxo-3-piperidyl]pyridine-2-carboxamide]
1 to 10 nM | 50 to 70% | CC1(C)[C@H](NC(=O)c2cnc(N3CCC(CN4CCN(c5ccc(C(=O)NC6CCC(=O)NC6=O)c(F)c5)CC4)CC3)cn2)C(C)(C)[C@H]1Oc1ccc(C#N)c(Cl)c1 (stereo partly drawn) [Compound 18, N-((1R,3R)-3-(3-chloro-4-cyanophenoxy)-2,2,4,4-tetramethylcyclobutyl)-5-(4-((4-(4-((2,6-dioxopiperidin-3-yl)carbamoyl)-3-fluorophenyl)piperazin-1-yl)methyl)piperidin-1-yl)pyrazine-2-carboxamide]
< 1 nM | 50 to 70% | Cc1cc(O[C@H]2C(C)(C)[C@H](NC(=O)c3ccc(N4CCC(CN5CCOCCCCOc6cc(C(=O)NC7CCC(=O)NC7=O)ccc6O[C@H]6C[C@H]5C6)CC4)cc3)C2(C)C)cc(C)c1C#N (some centres unmarked) [Compound 64, (1r,18r)-N-(2,6-dioxopiperidin-3-yl)-17-{[1-(4-{[(1r,3r)-3-(4-cyano-3,5-dimethylphenoxy)-2,2,4,4-tetramethylcyclobutyl]carbamoyl}phenyl)piperidin-4-yl]methyl}-2,9,14-trioxa-17-azatricyclo[16.1.1.0^3,8]icosa-3(8),4,6-triene-6-carboxamide]
< 1 nM | ≥ 70% | COc1cc(O[C@H]2C(C)(C)[C@H](NC(=O)c3ccc(N4CCC(CN5CCN(c6ccc(C(=O)N[C@H]7CCC(=O)NC7=O)cn6)CC5)CC4)cc3)C2(C)C)ccc1C#N [Compound 42, N-[(3S)-2,6-dioxopiperidin-3-yl]-6-(4-{[1-(4-{[(1r,3r)-3-(4-cyano-3-methoxyphenoxy)-2,2,4,4-tetramethylcyclobutyl]carbamoyl}phenyl)piperidin-4-yl]methyl}piperazin-1-yl)pyridine-3-carboxamide]
< 1 nM | 50 to 70% | CC(C)N(CC1CCN(c2cnc(C(=O)N[C@H]3CC[C@H](Oc4ccc(C#N)c(Cl)c4)CC3)cn2)CC1)[C@H]1C[C@H](Oc2ccc(C(=O)NC3CCC(=O)NC3=O)c(F)c2)C1 (stereo partly drawn) [Compound 25, N-((1R,4R)-4-(3-chloro-4-cyanophenoxy)cyclohexyl)-5-(4-((((1R,3R)-3-(4-((2,6-dioxopiperidin-3-yl)carbamoyl)-3-fluorophenoxy)cyclobutyl)(isopropyl)amino)methyl)piperidin-1-yl)pyrazine-2-carboxamide]
< 1 nM | ≥ 70% | Cc1cc(O[C@H]2C(C)(C)[C@H](NC(=O)c3ccc(N4CCC(CN5CCN(c6cnc(C(=O)N[C@H]7CCC(=O)NC7=O)cn6)CC5)CC4)cc3)C2(C)C)cc(C)c1C#N [Compound 33, 5-[4-[[1-[4-[[3-(4-cyano-3,5-dimethyl-phenoxy)-2,2,4,4-tetramethyl-cyclobutyl]carbamoyl]phenyl]-4-piperidyl]methyl]piperazin-1-yl]-N-[(3S)-2,6-dioxo-3-piperidyl]pyrazine-2-carboxamide]
< 1 nM | ≥ 70% | COc1cc(O[C@H]2C(C)(C)[C@H](NC(=O)c3ccc(N4CCO[C@@H](CN5CCN(c6ccc(C(=O)NC7CCC(=O)NC7=O)cc6OC)CC5)C4)cc3)C2(C)C)ccc1C#N (stereo partly drawn) [Compound 57, N-(2,6-dioxopiperidin-3-yl)-3-methoxy-4-(4-{[(2S)-4-(4-{[(1r,3r)-3-(4-cyano-3-methoxyphenoxy)-2,2,4,4-tetramethylcyclobutyl]carbamoyl}phenyl)morpholin-2-yl]methyl}piperazin-1-yl)benzamide]
< 1 nM | ≥ 70% | COc1cc(O[C@H]2C(C)(C)[C@H](NC(=O)c3ccc(N4CCO[C@@H](CN5CCN(c6ccc(C(=O)NC7CCC(=O)NC7=O)c(OC)c6)CC5)C4)cc3)C2(C)C)ccc1C#N (stereo partly drawn) [Compound 58, N-(2,6-dioxopiperidin-3-yl)-2-methoxy-4-(4-{[(2S)-4-(4-{[(1r,3r)-3-(4-cyano-3-methoxyphenoxy)-2,2,4,4-tetramethylcyclobutyl]carbamoyl}phenyl)morpholin-2-yl]methyl}piperazin-1-yl)benzamide]
